Each structure is given as a SMILES string.

In one test the target is T1, recombinant human MAO-A (Homo sapiens, UniProt P21397).
T1 construct: purchased BD Biosciences (Bedford, MA, USA)
T1 sequence (P21397 1-527): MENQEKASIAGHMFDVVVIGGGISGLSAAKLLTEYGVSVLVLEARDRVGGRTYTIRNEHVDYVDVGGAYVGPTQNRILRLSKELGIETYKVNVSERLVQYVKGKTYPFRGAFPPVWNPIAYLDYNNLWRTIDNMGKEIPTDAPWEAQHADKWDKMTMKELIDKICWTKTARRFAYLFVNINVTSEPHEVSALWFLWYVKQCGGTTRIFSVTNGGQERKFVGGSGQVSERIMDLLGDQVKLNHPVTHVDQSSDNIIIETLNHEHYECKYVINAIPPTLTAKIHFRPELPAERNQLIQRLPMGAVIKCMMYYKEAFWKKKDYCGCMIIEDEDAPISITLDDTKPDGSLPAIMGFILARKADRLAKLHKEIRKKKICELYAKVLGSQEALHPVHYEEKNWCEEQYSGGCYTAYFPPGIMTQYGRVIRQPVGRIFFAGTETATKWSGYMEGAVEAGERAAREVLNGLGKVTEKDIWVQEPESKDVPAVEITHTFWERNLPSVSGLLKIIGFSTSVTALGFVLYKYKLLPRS
In words: In vitro MAO inhibition assay (kynuramine oxidative deamination), IC50. The format is biochemical. The conditions noted are these: rhMAO-A, kynuramine 80 μM, steady-state, mean ± SD. On the procedure:
(§1) A fixed concentration of kynuramine substrate and varying concentrations of the test compounds were used to determine the IC50 values. Kynuramine concentrations for MAO-A and -B assays were 80 μM and 50 μM, respectively. The concentrations of PQ and NPC1161 enantiomers varied from 0.1 μM to 200 μM, for the rhMAO-A and -B enzyme activity inhibition. The test compounds were dissolved in DMSO, diluted in the buffer solution just before the assay, and pre-incubated with the enzyme (MAO-A (5 μg/mL) or -B (12.5 μg/mL)) for 10 min at 37 °C. […] The enzymatic reactions were initiated by the addition of the substrate (kynuramine 80 and 50 μM, for MAO-A and -B, respectively) and incubated for 20 min at 37 °C. The enzyme reactions were terminated by the addition of 78 μL of 2N NaOH to each well. The formation of 4-hydroxyquinoline (the enzyme reaction end product) was recorded fluorometrically on a SpectraMax M5 fluorescence plate reader (Molecular Devices, Sunnyvale, CA, USA) with 320 nm excitation and 380 nm emission wavelengths, using the Soft MaxPro-6 program. The inhibition of enzyme activity was calculated in terms of product formation as a percentage of corresponding controls (enzyme–substrate reaction without inhibitors). Assay controls, to define the interference of the test compounds with the fluorescence measurements, were set up simultaneously, and the enzyme or substrate was added after stopping the reaction.
(§2) The enzyme assays were performed at a steady-state fixed concentration of the substrate kynuramine (80 μM for MAO-A and 50 μM for MAO-B) and different concentrations of the test compounds (PQ and NPC1161 enantiomers). The dose–response enzyme-inhibition curves were generated using Microsoft® Excel (Figure 2), and the IC50 values were computed with XLfit®.
`COc1cc(C)c2c(Oc3cccc(C(F)(F)F)c3)c(OC)cc(NC(C)CCCN)c2n1` (stereo not drawn) [Tafenoquine, 4-N-[2,6-dimethoxy-4-methyl-5-[3-(trifluoromethyl)phenoxy]quinolin-8-yl]pentane-1,4-diamine]: the IC50 was 2.7 ± 0.14 µM.

The target in the next test is T2, recombinant human MAO-B (Homo sapiens, UniProt P27338).
T2 construct: purchased BD Biosciences (Bedford, MA, USA)
T2 sequence (P27338 1-520): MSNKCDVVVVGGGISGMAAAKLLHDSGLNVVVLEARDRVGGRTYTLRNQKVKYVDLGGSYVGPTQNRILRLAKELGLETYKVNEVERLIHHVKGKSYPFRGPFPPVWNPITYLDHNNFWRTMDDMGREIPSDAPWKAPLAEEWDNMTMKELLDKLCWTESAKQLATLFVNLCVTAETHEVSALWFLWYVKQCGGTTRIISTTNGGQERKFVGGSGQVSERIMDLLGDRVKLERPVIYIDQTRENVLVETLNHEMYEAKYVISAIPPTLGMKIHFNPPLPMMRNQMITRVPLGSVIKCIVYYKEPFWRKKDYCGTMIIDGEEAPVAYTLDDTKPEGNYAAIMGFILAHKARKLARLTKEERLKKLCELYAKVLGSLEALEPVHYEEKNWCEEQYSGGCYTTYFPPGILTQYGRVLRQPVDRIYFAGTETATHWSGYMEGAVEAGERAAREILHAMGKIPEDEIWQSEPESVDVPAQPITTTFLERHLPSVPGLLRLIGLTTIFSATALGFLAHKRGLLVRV
Described as above. Type of test: biochemical. Conditions: rhMAO-B, kynuramine 50 μM, steady-state, mean ± SD. On the procedure:
as §1, §2
Take `COc1cc(NC(C)CCCN)c2ncccc2c1` (racemic) [(RS)-(±)-Primaquine, Primaquine]: the IC50 stood at 107 ± 1.18 µM. On the same count and under the same terms, under `COc1cc(N[C@H](C)CCCN)c2ncccc2c1` [(R)-(−)-Primaquine] stands 117 ± 8.82 µM; under `COc1cc(N[C@@H](C)CCCN)c2ncccc2c1` [(S)-(+)-Primaquine], 170 ± 15.3 µM; under `COc1ccc2c(c1)[nH]c1c(C)nccc12` [Harmine], 53.1 ± 3.91 µM. With `COc1cc(C)c2c(Oc3cccc(C(F)(F)F)c3)c(OC)cc(NC(C)CCCN)c2n1` (stereo not drawn) [Tafenoquine, 4-N-[2,6-dimethoxy-4-methyl-5-[3-(trifluoromethyl)phenoxy]quinolin-8-yl]pentane-1,4-diamine], the IC50 is 0.95 ± 0.07 µM.

The values above are taken from publication PMC8146505, “Enantioselective Interactions of Anti-Infective 8-Aminoquinoline Therapeutics with Human Monoamine Oxidases A and B” (Pharmaceuticals, 2021).
